“Also recorded” adds a separate entry of the source.
System: Cell Growth
Assay: Inhibition of Cell Growth (ICG) as marker for cytotoxicity / biological reactivity
Format: cell-based
Excerpt: FIG. 1 is a diagram showing the relation ship between Inhibition of Cell Growth (ICG) and concentration of 3,4-DGE in a solution.
In order to investigate and come up with the present invention, the present inventors studied the relationship between the different GDPs and came to the conclusion that the GDPs interact according to the reaction formula given above.

Structure (SMILES): O=CC(=O)C=CC(O)CO (centres unmarked) [3,4-DGE, 3,4-dideoxyglucosone-3-ene]
- relationship between concentration of 3,4-DGE and Inhibition of Cell Growth (ICG) (FIG. 1, ICG used as measure/marker for biological reactivity): good dose relation between 3,4-DGE and cytotoxicity; also recorded: dose dependent relationship
- toxicity compared with the other known GDPs (known GDPs: acetaldehyde, formaldehyde, glyoxal, methylglyoxal, 3-DG, 5-HMF): mast toxic of the known GDPs
